Experimental data from US10323016B2, “Imidazol- or 1,2,4-triazol-derivatives and their use” (UNIVERSITE DE LILLE 2 DROIT ET SANTE, priority 2014, dated 2019).

Assays:
hTGR5 = hTGR5 (Homo sapiens (Human), UniProt Q8TDU6); test: TGR5/CRE Luciferase Assay (hTGR5); type: cell-based; settings: for EC50: HEK 293 cells transiently co-transfected with pCMV tag4b-TGR5h and pCRE TA-Luciferase reporter, overnight incubation; for hTGR5 % trans: HEK 293 luciferase reporter, percentage of the 10 μM LCA value
Sequence of hTGR5 (Q8TDU6 whole entry): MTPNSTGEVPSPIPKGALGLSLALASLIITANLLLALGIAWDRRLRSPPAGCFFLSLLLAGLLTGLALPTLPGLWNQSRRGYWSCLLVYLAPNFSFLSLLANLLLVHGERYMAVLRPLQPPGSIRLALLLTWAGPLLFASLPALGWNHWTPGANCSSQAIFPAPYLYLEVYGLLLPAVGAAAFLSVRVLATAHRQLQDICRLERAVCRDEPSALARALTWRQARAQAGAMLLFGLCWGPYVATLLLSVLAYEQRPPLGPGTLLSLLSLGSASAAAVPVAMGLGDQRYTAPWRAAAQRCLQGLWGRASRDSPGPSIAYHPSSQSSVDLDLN
Method: (§1) TGR5/CRE Luciferase Assay
(§2) In the following tables TGR5 activation by compounds and subsequent increase in intracellular cAMP were evaluated using a luciferase reporter gene assay. Human embryonic kidney (HEK) 293 cells were transiently co-transfected with pCMV tag4b-TGR5 h (to follow hTGR5 activation) or pCMV AC6-TGR5m (to follow mTGR5 activation) expression plasmids and the pCRE TA-Luciferase reporter plasmid using the JET PEI reagent (Polyplus transfection). Transfected cells were seeded in 96-well plates and incubated overnight with the test compounds at increasing concentrations tested in duplicate. Lithocolic acid (LCA) at 10 μM was used as a positive reference compound. The cAMP-dependent luciferase expression was followed using the BrightGlo reagent according to the manufacturer (Promega) instructions. Luminescence was read with a Mithras plate reader (Berthold). […] Concentration-response curves were fitted by a nonlinear regression analysis to a 4 parameter logistic equation.

mTGR5 = mTGR5 (Mus musculus (Mouse), UniProt Q80SS6); test: TGR5/CRE Luciferase Assay (mTGR5); type: cell-based; settings: for EC50: HEK 293 cells transiently co-transfected with pCMV AC6-TGR5m and pCRE TA-Luciferase reporter, overnight incubation; for mTGR5 % trans: HEK 293 luciferase reporter, percentage of the 10 μM LCA value
Sequence of mTGR5 (Q80SS6 whole entry): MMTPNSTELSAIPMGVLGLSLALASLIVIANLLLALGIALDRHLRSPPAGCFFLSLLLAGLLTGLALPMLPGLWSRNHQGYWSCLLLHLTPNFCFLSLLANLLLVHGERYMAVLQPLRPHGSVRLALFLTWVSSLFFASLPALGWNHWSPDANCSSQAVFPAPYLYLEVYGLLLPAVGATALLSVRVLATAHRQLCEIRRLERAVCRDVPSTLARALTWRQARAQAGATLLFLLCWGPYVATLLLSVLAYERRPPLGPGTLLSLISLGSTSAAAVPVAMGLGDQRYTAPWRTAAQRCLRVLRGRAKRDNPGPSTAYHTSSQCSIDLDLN
Method: as §1, §2

EC50 (hTGR5) [µM] | hTGR5 % trans (hTGR5) [%] | EC50 (mTGR5) [µM] | mTGR5 % trans (mTGR5) [%] | Substance
0.16 | 85 | 0.018 | 98 | [2-[2,6-Difluoro-4-(2-methoxy-polyethyleneglycoxy)-benzylsulfanyl]-3-(4-fluoro-phenyl)-3H-imidazol-4-yl]-(3,4-dimethoxy-phenyl)-methyl-amine [Example 9]
0.58 | 60 | 0.029 | 85 | [2-[2,6-Difluoro-4-(2-methoxy-polyethyleneglycoxy)-benzylsulfanyl]-3-(4-fluoro-phenyl)-3H-imidazol-4-yl]-(3,4-dimethoxy-phenyl)-methyl-amine [Example 22]
1.2 | 71 | 0.068 | 126 | [2-[2,6-Difluoro-4-(2-methoxy-polyethyleneglycoxy)-benzylsulfanyl]-3-(4-fluorophenyl)-3H-imidazol-4-yl]-(3,4-dimethoxy-phenyl)-methyl-amine [Example 24]

Substance | EC50 (hTGR5) [µM] | hTGR5 % trans (hTGR5) [%] | EC50 (mTGR5) [µM] | mTGR5 % trans (mTGR5) [%]
[2-[2,6-Difluoro-4-(2-methoxy-polyethyleneglycoxy)-benzylsulfanyl]-3-(4-fluoro-3-methoxy-phenyl)-3H-imidazol-4-yl]-(3,4-dimethoxy-phenyl)-methyl-amine [Example 23] | 0.33 | 103 | 0.026 | 108
